According to US7846959B2, “Raf modulators and methods of use” (Exelixis, Inc., priority 2004, dated 2010):

Experiments:
[1] = target: c-Raf (Homo sapiens, UniProt P04049); assay: Luciferase-coupled chemiluminescence kinase assay (ATP consumption), c-Raf; type: biochemical; conditions: read-out: cRaf-1 (inhibition indicated as IC50)
How it was run: (§1)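 ATP depletion, limited to 25-60%, read by luciferase-luciferin chemiluminescence gives IC50 values. Before the 3 hr ambient-temperature kinase reaction with ATP, compound and […] enzyme were preincubated 30 minutes at room temperature in Tris pH 7.5 buffer with MgCl2, TX-100 and DTT.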

[2] = target: B-Raf (Homo sapiens, UniProt P15056); assay: Luciferase-coupled chemiluminescence kinase assay (ATP consumption), B-Raf; type: biochemical; conditions: read-out: bRaf (inhibition indicated as IC50)
How it was run: as §1

Chain of c-Raf (P04049 whole entry): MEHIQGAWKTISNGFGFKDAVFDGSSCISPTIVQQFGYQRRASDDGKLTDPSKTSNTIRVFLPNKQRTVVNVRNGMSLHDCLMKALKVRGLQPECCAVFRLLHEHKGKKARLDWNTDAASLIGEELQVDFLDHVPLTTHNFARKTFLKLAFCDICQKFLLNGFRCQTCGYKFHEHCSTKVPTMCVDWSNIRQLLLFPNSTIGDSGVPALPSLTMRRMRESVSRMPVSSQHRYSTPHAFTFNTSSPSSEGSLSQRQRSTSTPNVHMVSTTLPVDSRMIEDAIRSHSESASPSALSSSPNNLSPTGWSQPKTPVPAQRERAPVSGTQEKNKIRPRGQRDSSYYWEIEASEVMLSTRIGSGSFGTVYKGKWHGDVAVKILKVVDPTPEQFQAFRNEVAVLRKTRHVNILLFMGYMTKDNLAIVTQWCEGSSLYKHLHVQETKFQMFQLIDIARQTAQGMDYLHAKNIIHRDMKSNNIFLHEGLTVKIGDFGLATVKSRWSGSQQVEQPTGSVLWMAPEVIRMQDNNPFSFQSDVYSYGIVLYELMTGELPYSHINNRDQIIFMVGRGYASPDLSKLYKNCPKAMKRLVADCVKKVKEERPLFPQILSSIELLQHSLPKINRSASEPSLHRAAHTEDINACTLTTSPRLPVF
Chain of B-Raf (P15056 whole entry): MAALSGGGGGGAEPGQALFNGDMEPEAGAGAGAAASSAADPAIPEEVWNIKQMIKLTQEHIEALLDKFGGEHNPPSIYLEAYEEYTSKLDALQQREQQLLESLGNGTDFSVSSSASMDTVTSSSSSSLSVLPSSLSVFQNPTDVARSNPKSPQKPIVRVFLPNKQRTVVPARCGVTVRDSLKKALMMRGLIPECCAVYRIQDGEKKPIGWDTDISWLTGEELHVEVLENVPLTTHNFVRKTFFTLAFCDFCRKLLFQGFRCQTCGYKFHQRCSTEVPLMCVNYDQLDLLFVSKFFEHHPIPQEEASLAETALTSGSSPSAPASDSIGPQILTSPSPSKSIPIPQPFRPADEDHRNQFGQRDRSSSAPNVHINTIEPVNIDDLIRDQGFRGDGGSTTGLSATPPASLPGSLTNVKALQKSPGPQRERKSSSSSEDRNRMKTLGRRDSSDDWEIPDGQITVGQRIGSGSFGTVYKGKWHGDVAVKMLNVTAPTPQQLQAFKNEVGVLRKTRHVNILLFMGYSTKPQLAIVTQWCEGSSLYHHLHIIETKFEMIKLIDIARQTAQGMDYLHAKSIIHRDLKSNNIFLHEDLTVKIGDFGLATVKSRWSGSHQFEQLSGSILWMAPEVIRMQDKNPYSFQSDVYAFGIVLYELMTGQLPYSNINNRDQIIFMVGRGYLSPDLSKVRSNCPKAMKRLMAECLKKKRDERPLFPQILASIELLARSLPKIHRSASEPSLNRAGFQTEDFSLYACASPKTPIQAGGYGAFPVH

Row | Structure (SMILES) | IC50 [1] | IC50 [2]
1 | COC(=O)Nc1nc2cc(C3(O)c4ccccc4C(=O)N3c3ccccc3Oc3ccccc3)ccc2[nH]1 (stereo not shown) [Entry 342, methyl (5-{1-hydroxy-3-oxo-2-[2-(phenyloxy)phenyl]-2,3-dihydro-1H-isoindol-1-yl}-1H-benzimidazol-2-yl)carbamate] | 100 to 1000 nM | 100 to 1000 nM
2 | O=C1c2ccccc2C(O)(c2ccc3[nH]c(Nc4ccccc4)nc3c2)N1c1cccc(Cl)c1F (stereo not shown) [Entry 348, 2-(3-chloro-2-fluorophenyl)-3-hydroxy-3-[2-(phenylamino)-1H-benzimidazol-5-yl]-2,3-dihydro-1H-isoindol-1-one] | 1000 to 10000 nM | 1000 to 10000 nM
3 | COC(=O)Nc1nc2ccc(C3(O)c4c(Cl)ccc(Cl)c4C(=O)N3c3cccc(Cl)c3F)cc2[nH]1 (stereo not shown) [Entry 349, methyl {6-[4,7-dichloro-2-(3-chloro-2-fluorophenyl)-1-hydroxy-3-oxo-2,3-dihydro-1H-isoindol-1-yl]-1H-benzimidazol-2-yl}carbamate] | 1000 to 10000 nM | 1000 to 10000 nM
4 | CCOC(=O)Nc1nc2cc(C(=O)c3ccccc3C(=O)OCc3ccccc3)ccc2o1 [Entry 350, phenylmethyl 2-[(2-{[(ethyloxy)carbonyl]amino}-1,3-benzoxazol-5-yl)carbonyl]benzoate] | 1000 to 10000 nM | 1000 to 10000 nM
5 | C#Cc1cc(Cl)cc(N2C(=O)c3ccccc3C2(O)c2ccc3[nH]c(NC(=O)OC)nc3c2)c1C (stereo not shown) [Entry 351, methyl {5-[2-(5-chloro-3-ethynyl-2-methylphenyl)-1-hydroxy-3-oxo-2,3-dihydro-1H-isoindol-1-yl]-1H-benzimidazol-2-yl}carbamate] | 100 to 1000 nM | < 100 nM
6 | CCOC(=O)Nc1nc2cc(C3(O)c4ccccc4C(=O)N3c3cccc(Cl)c3F)ccc2o1 (stereo not shown) [Entry 357, ethyl {5-[2-(3-chloro-2-fluorophenyl)-1-hydroxy-3-oxo-2,3-dihydro-1H-isoindol-1-yl]-1,3-benzoxazol-2-yl}carbamate] | 100 to 1000 nM | < 100 nM
7 | COC(=O)Nc1nc2cc(C3(O)c4ccccc4C(=O)N3c3cc(Cl)cc(I)c3C)ccc2[nH]1 (stereo not shown) [Entry 358, methyl {5-[2-(5-chloro-3-iodo-2-methylphenyl)-1-hydroxy-3-oxo-2,3-dihydro-1H-isoindol-1-yl]-1H-benzimidazol-2-yl}carbamate] | 100 to 1000 nM | 100 to 1000 nM
8 | O=C1c2ccccc2C(O)(c2ccc3[nH]c(Nc4cnccn4)nc3c2)N1c1cccc(Cl)c1F (stereo not shown) [Entry 361, 2-(3-chloro-2-fluorophenyl)-3-hydroxy-3-[2-(pyrazin-2-ylamino)-1H-benzimidazol-5-yl]-2,3-dihydro-1H-isoindol-1-one] | < 100 nM | < 100 nM
9 | COC(=O)Nc1nc2cc(C3(O)c4ccccc4C(=O)N3c3cccc(I)c3F)ccc2[nH]1 (stereo not shown) [Entry 362, methyl {5-[2-(2-fluoro-3-iodophenyl)-1-hydroxy-3-oxo-2,3-dihydro-1H-isoindol-1-yl]-1H-benzimidazol-2-yl}carbamate] | < 100 nM | < 100 nM
10 | C#Cc1ccc(F)c(N2C(=O)c3ccccc3C2(O)c2ccc3nc(NC(=O)OC)[nH]c3c2)c1 (stereo not shown) [Entry 363, methyl {6-[2-(5-ethynyl-2-fluorophenyl)-1-hydroxy-3-oxo-2,3-dihydro-1H-isoindol-1-yl]-1H-benzimidazol-2-yl}carbamate] | < 100 nM | < 100 nM
11 | C#Cc1cccc(N2C(=O)c3ccccc3C2(O)c2ccc3[nH]c(Nc4ncccn4)nc3c2)c1F (stereo not shown) [Entry 364, 2-(3-ethynyl-2-fluorophenyl)-3-hydroxy-3-[2-(pyrimidin-2-ylamino)-1H-benzimidazol-5-yl]-2,3-dihydro-1H-isoindol-1-one] | < 100 nM | < 100 nM
12 | COC(=O)Nc1nc2cc(C3(O)c4ccccc4C(=O)N3c3cc(C)ccc3C)ccc2[nH]1 (stereo not shown) [Entry 365, methyl {5-[2-(2,5-dimethylphenyl)-1-hydroxy-3-oxo-2,3-dihydro-1H-isoindol-1-yl]-1H-benzimidazol-2-yl}carbamate] | < 100 nM | < 100 nM
13 | C=Cc1cccc(N2C(=O)c3ccccc3C2(O)c2ccc3[nH]c(NC(=O)OC)nc3c2)c1F (stereo not shown) [Entry 366, methyl {5-[2-(3-ethenyl-2-fluorophenyl)-1-hydroxy-3-oxo-2,3-dihydro-1H-isoindol-1-yl]-1H-benzimidazol-2-yl}carbamate] | < 100 nM | < 100 nM
14 | COC(=O)Nc1nc2ccc(C3(O)c4ccccc4C(=O)N3c3cccc(OC)c3F)cc2[nH]1 (stereo not shown) [Entry 367, methyl (6-{2-[2-fluoro-3-(methyloxy)phenyl]-1-hydroxy-3-oxo-2,3-dihydro-1H-isoindol-1-yl}-1H-benzimidazol-2-yl)carbamate] | 100 to 1000 nM | < 100 nM

Results, then the compound that gave them:

Row | IC50 [1] | IC50 [2] | Structure (SMILES)
15 | < 100 nM | < 100 nM | COC(=O)Nc1nc2ccc(C3(O)c4c(F)ccc(F)c4C(=O)N3c3cccc(Cl)c3F)cc2[nH]1 (stereo not shown) [Entry 339, methyl {6-[2-(3-chloro-2-fluorophenyl)-4,7-difluoro-1-hydroxy-3-oxo-2,3-dihydro-1H-isoindol-1-yl]-1H-benzimidazol-2-yl}carbamate]
16 | < 100 nM | < 100 nM | CCOC(=O)Nc1nc2ccc(C3(O)c4ccccc4C(=O)N3c3cccc(Cl)c3F)cc2[nH]1 (stereo not shown) [Entry 340, ethyl {6-[2-(3-chloro-2-fluorophenyl)-1-hydroxy-3-oxo-2,3-dihydro-1H-isoindol-1-yl]-1H-benzimidazol-2-yl}carbamate]
17 | < 100 nM | < 100 nM | O=C(Nc1nc2ccc(C3(O)c4ccccc4C(=O)N3c3cccc(Cl)c3F)cc2[nH]1)OCCF (stereo not shown) [Entry 341, 2-fluoroethyl {6-[2-(3-chloro-2-fluorophenyl)-1-hydroxy-3-oxo-2,3-dihydro-1H-isoindol-1-yl]-1H-benzimidazol-2-yl}carbamate]
18 | < 100 nM | < 100 nM | CCN(CC)C(=O)CCCC(=O)Nc1nc2cc(C3(O)c4ccccc4C(=O)N3c3cccc(Cl)c3F)ccc2[nH]1 (stereo not shown) [Entry 343, N′-{5-[2-(3-chloro-2-fluorophenyl)-1-hydroxy-3-oxo-2,3-dihydro-1H-isoindol-1-yl]-1H-benzimidazol-2-yl}-N,N-diethylpentanediamide]
19 | < 100 nM | < 100 nM | O=C(Nc1nc2ccc(C3(O)c4ccccc4C(=O)N3c3cccc(Cl)c3F)cc2[nH]1)OCC1CCC1 (stereo not shown) [Entry 344, cyclobutylmethyl {6-[2-(3-chloro-2-fluorophenyl)-1-hydroxy-3-oxo-2,3-dihydro-1H-isoindol-1-yl]-1H-benzimidazol-2-yl}carbamate]
20 | < 100 nM | < 100 nM | O=C(Nc1nc2ccc(C3(O)c4ccccc4C(=O)N3c3cccc(Cl)c3F)cc2[nH]1)OCC(F)(F)F (stereo not shown) [Entry 345, 2,2,2-trifluoroethyl {6-[2-(3-chloro-2-fluorophenyl)-1-hydroxy-3-oxo-2,3-dihydro-1H-isoindol-1-yl]-1H-benzimidazol-2-yl}carbamate]
21 | < 100 nM | < 100 nM | COC(=O)Nc1nc2cc(C3(O)c4ccccc4C(=O)N3c3cccc(C(C)(C)C)c3)ccc2[nH]1 (stereo not shown) [Entry 346, methyl (5-{2-[3-(1,1-dimethylethyl)phenyl]-1-hydroxy-3-oxo-2,3-dihydro-1H-isoindol-1-yl}-1H-benzimidazol-2-yl)carbamate]
22 | < 100 nM | < 100 nM | COC(=O)Nc1nc2ccc(C3(O)c4c(F)cccc4C(=O)N3c3cccc(Cl)c3F)cc2[nH]1 (stereo not shown) [Entry 347, methyl {6-[2-(3-chloro-2-fluorophenyl)-7-fluoro-1-hydroxy-3-oxo-2,3-dihydro-1H-isoindol-1-yl]-1H-benzimidazol-2-yl}carbamate]
23 | < 100 nM | < 100 nM | C#Cc1cc(N2C(=O)c3ccccc3C2(O)c2ccc3[nH]c(NC(=O)OC)nc3c2)c(F)cc1F (stereo not shown) [Entry 352, methyl {5-[2-(5-ethynyl-2,4-difluorophenyl)-1-hydroxy-3-oxo-2,3-dihydro-1H-isoindol-1-yl]-1H-benzimidazol-2-yl}carbamate]
24 | < 100 nM | < 100 nM | C#Cc1c(F)ccc(N2C(=O)c3ccccc3C2(O)c2ccc3[nH]c(NC(=O)OC)nc3c2)c1F (stereo not shown) [Entry 353, methyl {5-[2-(3-ethynyl-2,4-difluorophenyl)-1-hydroxy-3-oxo-2,3-dihydro-1H-isoindol-1-yl]-1H-benzimidazol-2-yl}carbamate]
25 | < 100 nM | < 100 nM | O=C1c2ccccc2C(O)(c2ccc3[nH]c(Nc4ncccn4)nc3c2)N1c1cccc(Cl)c1F (stereo not shown) [Entry 354, 2-(3-chloro-2-fluorophenyl)-3-hydroxy-3-[2-(pyrimidin-2-ylamino)-1H-benzimidazol-5-yl]-2,3-dihydro-1H-isoindol-1-one]
26 | < 100 nM | < 100 nM | C#Cc1cccc(N2C(=O)c3c(F)ccc(F)c3C2(O)c2ccc3[nH]c(NC(=O)OC)nc3c2)c1F (stereo not shown) [Entry 355, methyl {5-[2-(3-ethynyl-2-fluorophenyl)-4,7-difluoro-1-hydroxy-3-oxo-2,3-dihydro-1H-isoindol-1-yl]-1H-benzimidazol-2-yl}carbamate]
27 | < 100 nM | < 100 nM | O=C1c2ccccc2C(O)(c2ccc3[nH]c(Nc4nccs4)nc3c2)N1c1cccc(Cl)c1F (stereo not shown) [Entry 356, 2-(3-chloro-2-fluorophenyl)-3-hydroxy-3-[2-(1,3-thiazol-2-ylamino)-1H-benzimidazol-5-yl]-2,3-dihydro-1H-isoindol-1-one]
28 | < 100 nM | < 100 nM | CCc1cccc(N2C(=O)c3ccccc3C2(O)c2ccc3[nH]c(NC(=O)OC)nc3c2)c1F (stereo not shown) [Entry 359, methyl {5-[2-(3-ethyl-2-fluorophenyl)-1-hydroxy-3-oxo-2,3-dihydro-1H-isoindol-1-yl]-1H-benzimidazol-2-yl}carbamate]
29 | < 100 nM | < 100 nM | C#Cc1ccc(C)c(N2C(=O)c3ccccc3C2(O)c2ccc3[nH]c(NC(=O)OC)nc3c2)c1 (stereo not shown) [Entry 360, methyl {5-[2-(5-ethynyl-2-methylphenyl)-1-hydroxy-3-oxo-2,3-dihydro-1H-isoindol-1-yl]-1H-benzimidazol-2-yl}carbamate]
